Data as given in patent publication US9085555B2, “Complement pathway modulators and uses thereof” (priority 2011, dated 2015).

Molecular target: Factor D (Homo sapiens (Human), UniProt P00746)
Test: biochemical
Type: biochemical
Details: read-out: IC50

Chain of Factor D (P00746 26-253): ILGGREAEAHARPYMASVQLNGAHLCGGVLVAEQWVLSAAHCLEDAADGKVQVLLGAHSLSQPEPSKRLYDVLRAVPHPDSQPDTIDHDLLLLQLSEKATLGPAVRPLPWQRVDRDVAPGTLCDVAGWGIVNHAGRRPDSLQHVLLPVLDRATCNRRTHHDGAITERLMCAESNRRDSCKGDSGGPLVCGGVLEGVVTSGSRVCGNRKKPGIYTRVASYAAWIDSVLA

| Compound | IC50 [nM] |
| --- | --- |
| NC(=O)c1cn(CC(=O)N2CCS[C@H]2C(=O)NCc2cccc(Cl)c2F)c2ccccc12 [Example 567, 1-{2-[(S)-2-(3-Chloro-2-fluoro-benzylcarbamoyl)-thiazolidin-3-yl]-2-oxo-ethyl}-1H-indole-3-carboxylic acid amide] | 293 |
| CC(=O)c1nc(CC(=O)N2[C@@H]3C[C@@H]3C[C@H]2C(=O)NCc2cccc(Cl)c2F)n2ccccc12 [Example 621, (1R,3S,5R)-2-[2-(1-Acetyl-imidazo[1,5-a]pyridin-3-yl)-acetyl]-2-aza-bicyclo[3.1.0]hexane-3-carboxylic acid 3-chloro-2-fluoro-benzylamide] | 19 |
| NC(=O)n1cc(NC(=O)N2C[C@@H](N)C[C@H]2C(=O)NCc2ccccc2Cl)c2ccccc21 [Example 50, (2S,4S)-4-Amino-pyrrolidine-1,2-dicarboxylic acid 1-[(1-carbamoyl-1H-indol-3-yl)-amide] 2-(2-chloro-benzylamide)] | 21600 |
| NC(=O)n1cc(NC(=O)N2NCC[C@@H]2C(=O)NCc2cccc(Cl)c2F)c2ccccc21 [Example 433] | 1790 |
| NC(=O)c1nn(CC(=O)N2[C@@H]3C[C@@H]3C[C@H]2C(=O)Nc2cccc(OC(F)(F)F)c2F)c2cnc(C3CC3)cc12 [Example 719, 5-Cyclopropyl-1-(2-((1R,3S,5R)-3-((2-fluoro-3-(trifluoromethoxy)phenyl)carbamoyl)-2-azabicyclo [3.1.0]hexan-2-yl)-2-oxoethyl)-1H-pyrazolo[3,4-c]pyridine-3-carboxamide] | 13 |
| NC(=O)c1cn(CC(=O)N2C[C@H](F)C[C@H]2C(=O)Nc2cccc(C(F)(F)F)c2F)c2ccccc12 [Example 517, 1-{2-[(2S,4R)-4-Fluoro-2-(2-fluoro-3-trifluoromethyl-phenylcarbamoyl)-pyrrolidin-1-yl]-2-oxo-ethyl}-1H-indole-3-carboxylic acid amide] | 1460 |
| CN(C)C[C@@H](NC(=O)[C@@H]1C[C@H]2C[C@H]2N1C(=O)Nc1cn(C(N)=O)c2ccccc12)c1cccc(Cl)c1F [Example 314, (1R,3S,5R)-2-Aza-bicyclo[3.1.0]hexane-2,3-dicarboxylic acid 2-[(1-carbamoyl-1H-indol-3-yl)-amide] 3-{[(S)-1-(3-chloro-2-fluoro-phenyl)-2-dimethylamino-ethyl]-amide}] | 20 |
| CC(C)(C)OC(=O)Cc1ccc2c(NC(=O)N3[C@@H]4C[C@@H]4C[C@H]3C(=O)NCc3cccc(Cl)c3F)cn(C(N)=O)c2c1 [Example 127, (1-Carbamoyl-3-{[(1R,3S,5R)-3-(3-chloro-2-fluoro-benzylcarbamoyl)-2-aza-bicyclo[3.1.0]hexane-2-carbonyl]-amino}-1H-indol-6-yl)-acetic acid tert-butyl ester] | 3 |
| CNC[C@@]1(F)C[C@@H](C(=O)NCc2cccc(Cl)c2F)N(C(=O)Nc2cn(C(N)=O)c3ccccc23)C1 [Example 424, 2S,4S)-4-Fluoro-4-methylaminomethyl-pyrrolidine-1,2-dicarboxylic acid 1-[(1-carbamoyl-1H-indol-3-yl)-amide]2-(3-chloro-2-fluoro-benzylamide] | 68 |
| COCCOc1ccc2c(C(N)=O)cn(CC(=O)N3C[C@H](F)C[C@H]3C(=O)NCc3cccc(Cl)c3F)c2c1 [Example 591, 1-{2-[(2S,4R)-2-(3-Chloro-2-fluoro-benzylcarbamoyl)-4-fluoro-pyrrolidin-1-yl]-2-oxo-ethyl}-6-(2-methoxy-ethoxy)-1H-indole-3-carboxylic acid amide] | 109 |
| NC(=O)n1cc(CC(=O)N2[C@@H]3C[C@@H]3C[C@H]2C(=O)NCc2cccc(Cl)c2F)c2cc(OCCO)ccc21 [Example 453, 3-{2-[(1R,3S,5R)-3-(3-Chloro-2-fluoro-benzylcarbamoyl)-2-aza-bicyclo[3.1.0]hex-2-yl]-2-oxo-ethyl}-5-(2-hydroxy-ethoxy)-indole-1-carboxylic acid amide] | 13 |
| CCN(CC)c1cc(Cl)c(F)c(CNC(=O)[C@@H]2C[C@@H](F)CN2C(=O)Nc2cn(C(N)=O)c3ccccc23)c1 [Example 252, (2S,4R)-4-Fluoro-pyrrolidine-1,2-dicarboxylic acid 1-[(1-carbamoyl-1H-indol-3-yl)-amide] 2-(3-chloro-5-diethylamino-2-fluoro-benzylamide)] | 114 |
| NCc1ccc(-c2cccc(NC(=O)[C@@H]3CCCN3C(=O)Nc3cn(C(N)=O)c4ccccc34)c2)cc1 [Example 400, (S)-Pyrrolidine-1,2-dicarboxylic acid 2-[(4′-aminomethyl-biphenyl-3-yl)-amide]1-[(1-carbamoyl-1H-indol-3-yl)-amide]] | 3950 |
| N#Cc1ccc(-c2cccc(NC(=O)[C@@H]3CCCN3C(=O)Nc3cn(C(N)=O)c4ccccc34)c2)cc1 [Example 152, (S)-pyrrolidine-1,2-dicarboxylic acid 1-[(1-carbamoyl-1H-indol-3-yl)amide]2-[(4′-cyano-biphenyl-3-yl)-amide]] | 4400 |
| CC(=O)c1cn(CC(=O)N2C[C@H](F)C[C@H]2C(=O)NCc2cccc(Cl)c2F)c2cc(OCc3ccc(C(=O)O)cc3)ccc12 [Example 602, 4-(3-Acetyl-1-{2-[(2S,4R)-2-(3-chloro-2-fluoro-benzylcarbamoyl)-4-fluoro-pyrrolidin-1-yl]-2-oxo-ethyl}-1H-indol-6-yloxymethyl)-benzoic acid] | 227 |
| CO[C@H]1[C@@H](C(=O)NC2(c3cccc(Cl)c3F)CC2)N(C(=O)Cn2nc(C(N)=O)c3cccnc32)C[C@@H]1F [Example 659, 1-(2-{(2S,3S,4S)-2-[1-(3-Chloro-2-fluoro-phenyl)-cyclopropylcarbamoyl]-4-fluoro-3-methoxy-pyrrolidin-1-yl}-2-oxo-ethyl)-1H-pyrazolo[3,4-b]pyridine-3-carboxylic acid amide] | 25 |
| CO[C@H]1[C@@H](C(=O)NCc2cccc(Cl)c2F)N(C(=O)Cn2cc(C(C)=O)c3cccnc32)C[C@@H]1F [Example 520, (2S,3S,4S)-1-[2-(3-Acetyl-pyrrolo[2,3-b]pyridin-1-yl)-acetyl]-4-fluoro-3-methoxy-pyrrolidine-2-carboxylic acid 3-chloro-2-fluoro-benzylamide] | 22 |
| NC(=O)n1cc(NC(=O)N2C[C@@H](N)C[C@H]2C(=O)NCc2cccc(OC(F)(F)F)c2)c2ccccc21 [Example 37, (2S,4S)-4-Amino-pyrrolidine-1,2-dicarboxylic acid 1-[(1-carbamoyl-1H-indol-3-yl)-amide] 2-(3-trifluoromethoxy-benzylamide)] | 22000 |
| COCCNC(=O)c1cc(Cl)c(F)c(CNC(=O)[C@@H]2C[C@@H](F)CN2C(=O)Nc2cn(C(N)=O)c3ccccc23)c1 [Example 438, (2S,4R)-4-Fluoro-pyrrolidine-1,2-dicarboxylic acid 1-[(1-carbamoyl-1H-indol-3-yl)-amide]2-[3-chloro-2-fluoro-5-(2-methoxy-ethylcarbamoyl)-benzylamide]] | 924 |
| C[C@@]1(F)C[C@@H](C(=O)NCc2cccc(Cl)c2F)N(C(=O)Cc2cn(C(N)=O)c3ccc(OCCO)cc23)C1 [Example 459, 3-{2-[(2S,4R)-2-(3-Chloro-2-fluoro-benzylcarbamoyl)-4-fluoro-4-methyl-pyrrolidin-1-yl]-2-oxo-ethyl)-5-(2-hydroxy-ethoxy)-indole-1-carboxylic acid amide] | 211 |
| NC(=O)n1cc(NC(=O)N2CC[C@H](O)[C@H]2C(=O)NCc2cccc(Cl)c2)c2ccccc21 [Example 257, (2S,3S)-3-Hydroxy-pyrrolidine-1,2-dicarboxylic acid 1-[(1-carbamoyl-1H-indol-3-yl)-amide] 2-(3-chloro-benzylamide)] | 3950 |
| NC(=O)n1cc(NC(=O)N2[C@@H]3C[C@@H]3C[C@H]2C(=O)NCc2cccc(Cl)c2F)c2cc(OCCN3CCCC3)ccc21 [Example 388, 1R,3S,5R)-2-Aza-bicyclo[3.1.0]hexane-2,3-dicarboxylic acid 2-{[1-carbamoyl-5-(2-pyrrolidin-1-yl-ethoxy)-1H-indol-3-yl]-amide}3-(3-chloro-2-fluoro-benzylamide] | 28 |
| NC(=O)n1cc(NC(=O)N2C[C@H](F)C[C@H]2C(=O)Nc2cncc(Cl)c2)c2ccccc21 [Example 193, (2S,4R)-4-Fluoro-pyrrolidine-1,2-dicarboxylic acid 1-[(1-carbamoyl-1H-indol-3-yl)-amide] 2-[(5-chloro-pyridin-3-yl)-amide]] | 160 |
| CC(=O)c1cn(CC(=O)N2[C@@H]3C[C@@H]3C[C@H]2C(=O)Nc2cccc(OC(F)(F)F)c2F)c2ncccc12 [Example 562, (1R,3S,5R)-2-[2-(3-Acetyl-pyrrolo[2,3-b]pyridin-1-yl)-acetyl]-2-aza-bicyclo[3.1.0]hexane-3-carboxylic acid (2-fluoro-3-trifluoromethoxy-phenyl)-amide] | 804 |
| CC(=O)c1cn(CC(=O)N2C[C@H]3C[C@H]3[C@H]2C(=O)NCc2cccc(Cl)c2F)c2ccncc12 [Example 537, (1R,2S,5S)-3-[2-(3-Acetyl-pyrrolo[3,2-c]pyridin-1-yl)-acetyl]-3-aza-bicyclo[3.1.0] hexane-2-carboxylic acid 3-chloro-2-fluoro-benzylamide] | 609 |
| NC(=O)c1cc(NC(=O)N2CCC[C@H]2C(=O)Nc2cccc(OC(F)(F)F)c2)c2ccccn12 [Example 121, (S)-Pyrrolidine-1,2-dicarboxylic acid 1-[(3-carbamoyl-indolizin-1-yl)-amide]2-[(3-trifluoromethoxy-phenyl)-amide]] | 1250 |
| CN1CCN(C(=O)c2cc(Cl)c(F)c(CNC(=O)[C@@H]3C[C@@H](F)CN3C(=O)Nc3cn(C(N)=O)c4ccccc34)c2)CC1 [Example 322, (2S,4R)-4-Fluoro-pyrrolidine-1,2-dicarboxylic acid 1-[(1-carbamoyl-1H-indol-3-yl)-amide] 2-[3-chloro-2-fluoro-5-(4-methyl-piperazine-1-carbonyl)-benzylamide]] | 348 |
| C[C@H]1CC[C@@H](C(=O)Nc2cccc(OC(F)(F)F)c2)N1C(=O)Nc1cn(C(N)=O)c2ccccc12 [Example 337, (2S,5S)-5-Methyl-pyrrolidine-1,2-dicarboxylic acid 1-[(1-carbamoyl-1H-indol-3-yl)-amide]2-[(3-trifluoromethoxy-phenyl)-amide]] | 250 |
